Data reported in US8710097B2, “Flavonoid dimers and methods of making and using such” (The Hong Kong Polytechnic University, priority 2006, dated 2014).
“And” between values parts separate entries of the source, which are not always exact repeats. Equal entries are not always repeated.

Key:
MDA435/LCC6 MDR cells [1] = assay: cells
[2] = test system: SSG-resistant L. donovani Ld39 promastigotes; assay: microbe, parasite or virus in culture; format: cell-based, Leishmania donovani
MDA435/LCC6 MDR cells [3] = assay: Doxorubicin accumulation; format: cell-based, human
Protocol: Doxorubicin accumulation. 2.5 ml (10^5 cells/ml) MDA435/LCC6 (both parent and MDR subtype) cells were seeded in each well of 6-well plates. At confluence, culture medium was removed. 2 ml of fresh DMEM with modulators was added and cells were incubated for 30 min at 37° C. Doxorubicin (final concentration of 20 μM) was then added and incubated for 2 h at 37° C. The cells were then harvested by trypsinization.
For P388 (both parent and MDR subtype) cells, 1 ml (10^5 cells) confluent cells were aliquot into Eppendorf tube and pre-incubated with flavone dimers for 30 min at 37° C. Doxorubicin (final concentration of 10 μM) was then added and incubated for 2 h at 37° C. at a final concentration of 10 μM. The cell pellets were washed 3 times with cold PBS by using an Eppendorf micro-centrifuge and lysed with 0.3N HCL in 50% ethanol, and sonicated for 30s. After centrifugation at 10000 rpm/min for 3 min, the supernatant was saved. The fluorescence of doxorubicin was measured using a spectrofluorometer (λexcite=470 nm, λemit=585 nm).
In order to understand whether the modulating activity for various anticancer drugs by different dimers is due to their different ability to modulate P-gp mediated drug efflux, their effects on the accumulation of doxorubicin in both MDA435/LCC6 sensitive and resistant cells were investigated. Doxorubicin was a fluorescent drug substrate of P-gp and was used in this experiment to monitor the P-gp mediated drug efflux. Accumulation of doxorubicin in these cells was determined in the presence or absence of apigenin dimers (10 μM) and monomer (20 μM). Verapamil was used as a positive control.

[4] = MDA435/LCC6 MDR, 5 μM dimer, FIG. 5

## O=c1cc(-c2ccc(OCCOCCOCCOCCOc3ccc(-c4cc(=O)c5c(O)cc(O)cc5o4)cc3)cc2)oc2cc(O)cc(O)c12 [Compound 9d, 1,13-Bis[4′-((5,7-dihydroxy)-4H-chromen-4-on-2-yl)phenyl]-1,4,7,10,13-pentaoxamidecane]
MDA435/LCC6 MDR cells [1]; LCC6 MDR, daunorubicin + 5 μM 9d
  RF, daunorubicin (IC50 without modulator / IC50 with modulator): 7.6
MDA435/LCC6 MDR cells [1]; LCC6 MDR, doxorubicin + 5 μM 9d or VP
  RF, doxorubicin (IC50 without modulator / IC50 with modulator): 9
MDA435/LCC6 MDR cells [1]; LCC6 MDR, mitoxantrone + 5 μM 9d
  RF, mitoxantrone (IC50 without modulator / IC50 with modulator): 2.2
MDA435/LCC6 MDR cells [1]; LCC6 MDR, taxol + 5 μM 9d or VP
  RF, taxol (IC50 without modulator / IC50 with modulator): 22
MDA435/LCC6 MDR cells [1]; LCC6 MDR, vinblastine + 5 μM 9d or VP
  RF, vinblastine (IC50 without modulator / IC50 with modulator): 10
MDA435/LCC6 MDR cells [1]; LCC6 MDR, vincristine + 5 μM 9d
  RF, vincristine (IC50 without modulator / IC50 with modulator): 41
MDA435/LCC6 MDR cells [1]; MDA435/LCC6 MDR, 5 μM 9d, FIG. 6A to 6E
  reversal of resistance to vinblastine, taxol, doxorubicin, vincristine, daunorubicin: to a level close to the parental
MDA435/LCC6 MDR cells [1]; MDA435/LCC6 MDR, 5 μM 9d, FIG. 6F
  effect on mitoxantrone resistance: No effect
MDA435/LCC6 MDR cells [1]; [4]
  IC60 of doxorubicin with modulator: 0.73 µM
  reduction of IC60 of doxorubicin, RF: about 6 RF
MDA435/LCC6 MDR cells [1]; MDA435/LCC6 MDR, FIG. 3B
  concentration reaching the plateau of taxol reversing activity: 5 µM
[2]; Ld39, 4 μM, FIGS. 17A and 17B
  reduction of SSG resistance level: back to the level of the sensitive strain
[2]; Ld39, FIG. 18B
  SSG sensitization: 3.9 fold
[2]; cytotoxicity of compound alone, 72 hrs, read-out: IC50(μM) of synthetic flavonoid, Ld39
  IC50: 10 ± 0.9 µM
MDA435/LCC6 MDR cells [3]; LCC6 MDR, 10 μM 9d
  doxorubicin accumulation relative to 9d-treated LCC6 cells: 97%
MDA435/LCC6 MDR cells [3]; LCC6 MDR, apigenin dimers 10 μM, 20 μM doxorubicin, 2 h
  enhancement of doxorubicin accumulation, folds of control: 5.8 folds and 4 folds
MDA435/LCC6 MDR cells [3]; MDA435/LCC6 MDR, 10 μM 9d, FIG. 7B
  intracellular doxorubicin concentration, % of the LCC6: 88%
